What was measured:
[1] = test system: U-251; assay: MTT cytotoxicity, U-251; format: cell-based; details: Homo sapiens, U-251, Glioblastoma, 72 hrs, read-out: LC50 (the source's name)
Description: (§1) The cytotoxicity of ZTP and ZTQ was analyzed by using human tumor cell lines. Human tumor cell lines were purchased from ATCC and NCI, and cultured in DMEM medium containing 10% FBS at 37° C. in 5% CO2 in an incubator. The cells grown to confluence were used for cytotoxicity analysis. The cells were digested with trypsin, washed with the culture medium, and then counted. 33 tumor cell lines were cultured. The cells were seeded at a density of 3000-6000 cells/well in a 96-well plate and incubated for 16-24 hrs. Then, various concentrations of ZTP or ZTQ dissolved in DMSO were added, and cultured for 72 hrs. The drug-treated cells and control cells were analyzed by MTT.

[2] = test system: CCL-225; assay: MTT cytotoxicity, CCL-225; format: cell-based; details: Homo sapiens, CCL-225, Colonic, 72 hrs, read-out: LC50 (the source's name)
Description: as §1

[3] = test system: CNE-2Z; assay: MTT cytotoxicity, CNE-2Z; format: cell-based; details: Homo sapiens, CNE2Z, Nasopharyngeal, 72 hrs, read-out: LC50 (the source's name)
Description: as §1

[4] = Pharmacokinetic study in mice; format: in vivo; details: both sexes, mouse, po, BALB/c mice, single dose of 100 mg/kg orally by gavage, plasma, Mean +/− SD; for half-life: read-out: T½ (converted)
Description: BALB/c mice (2 males and 2 females) of 8 weeks old were administered with the compounds ZTP and ZTQ (formulated with 15% Captsol or a carrier) at a single dose of 100 mg/kg. 0.5, 1, 3, 6, 12, 24, 48, and 72 hrs after administration, blood was taken from ophthalmic vein and plasma was prepared therefrom, to determine the plasma concentrations of ZTP and ZTQ. The pharmacokinetic parameters of the compounds ZTP and ZTQ given orally by gavage in the 4 mice are summarized as below (Tables 2 and 3): […]

[5] = test system: Caki-1; assay: MTT cytotoxicity, Caki-1; format: cell-based; details: Homo sapiens, Caki-1, Renal, 72 hrs, read-out: LC50 (the source's name)
Description: as §1

[6] = test system: MDA-MB-435; assay: MTT cytotoxicity, MDA-MB-435; format: cell-based; details: Homo sapiens, MDA-MB-435, Breast, 72 hrs, read-out: LC50 (the source's name)
Description: as §1

[7] = test system: MDA-MB-231; assay: MTT cytotoxicity, MDA-MB-231; format: cell-based; details: Homo sapiens, MDA-MB-231, Breast, 72 hrs, read-out: LC50 (the source's name)
Description: as §1

[8] = test system: BT-549; assay: MTT cytotoxicity, BT-549; format: cell-based; details: Homo sapiens, BT-549, Breast, 72 hrs, read-out: LC50 (the source's name)
Description: as §1

[9] = test system: ACHN; assay: MTT cytotoxicity, ACHN; format: cell-based; details: Homo sapiens, Renal, 72 hrs, read-out: LC50 (the source's name)
Description: as §1

[10] = test system: A549; assay: MTT cytotoxicity, A549; format: cell-based; details: Homo sapiens, A549, Lung, 72 hrs, read-out: LC50 (the source's name)
Description: as §1

[11] = test system: EC109; assay: MTT cytotoxicity, EC109; format: cell-based; details: Homo sapiens, ECa-109, EC109, Esophageal, 72 hrs, read-out: LC50 (the source's name)
Description: as §1

[12] = test system: AU-565; assay: MTT cytotoxicity, AU-565; format: cell-based; details: Homo sapiens, AU565, AU-565, Breast, 72 hrs, read-out: LC50 (the source's name)
Description: as §1

[13] = test system: HepG3B; assay: MTT cytotoxicity, HepG3B; format: cell-based; details: Homo sapiens, Liver, 72 hrs, read-out: LC50 (the source's name)
Description: as §1

[14] = test system: G-361; assay: MTT cytotoxicity, G-361; format: cell-based; details: Homo sapiens, G-361, Skin (melanoma), 72 hrs, read-out: LC50 (the source's name)
Description: as §1

[15] = test system: VEGFR protein kinase; assay: Inhibition of VEGFR protein kinase activity (phosphorylated VEGFR, western blotting) in HUMEC cells; format: cell-based, human; details: 1 hour treatment, phosphorylated VEGFR level, read-out: median inhibitory concentration (IC50) for inhibiting the activity of VEGFR protein kinase
Source text: VEGFR is a vascular endothelial growth factor receptor regulating the growth, migration, and differentiation of vascular endothelial cells, and determining the start of angiogenesis of tumors. After being stimulated by vascular endothelial cell growth factors, VEGFR forms a dimer, activates its kinase, and makes themselves phosphorylated. The level of the activity of VEGFR protein kinase is detected according to the phosphorylated degree of VEGFR. In this test, we used human microvascular endothelial cells (HUMECs) to determine whether ZTP and ZTQ can inhibit the activity of VEGFR protein kinase. HUMEC cells were subjected to adherent growth in DMEM medium (GIBCO-BRL) containing 10% bovine calf serum at 37° C. in 5% CO2. The cells were treated with various concentrations of ZTP and ZTQ (0, 10 ng/ml, 100 ng/ml, 500 ng/ml, 1 μg/ml, and 10 μg/ml), and the cell proteins were collected 1 hour after treatment. The protein content was determined through Bradford method, and then the level of phosphorylated VEGFR was assayed through western blotting. Immunoblotting experiment: denatured polyacrylamide gel was used for separation of the proteins with a sample load of 60 μg of total proteins. The proteins were electro-transferred onto a PVDF membrane and blocked. […] The membrane was exposed to an X-ray film, and the results were analyzed by a gel imaging system. […]

[16] = test system: 786-O; assay: MTT cytotoxicity, 786-O; format: cell-based; details: Homo sapiens, 786-0, Renal, 72 hrs, read-out: LC50 (the source's name)
Description: as §1

[17] = test system: LoVo; assay: MTT cytotoxicity, LoVo; format: cell-based; details: Homo sapiens, Colonic, 72 hrs, read-out: LC50 (the source's name)
Description: as §1

[18] = test system: D145; assay: MTT cytotoxicity, D145; format: cell-based; details: Homo sapiens, D145, Prostatic, 72 hrs, read-out: LC50 (the source's name)
Description: as §1

[19] = test system: SKOV3; assay: MTT cytotoxicity, SKOV3; format: cell-based; details: Homo sapiens, SK-OV-3, SKOV3, Ovarian, 72 hrs, read-out: LC50 (the source's name)
Description: as §1

| SMILES | CC50 [1] | CC50 [2] | CC50 [3] | Cmax [4] | Tmax [4] | half-life [4] | CC50 [5] | CC50 [6] | CC50 [7] | CC50 [8] | CC50 [9] | CC50 [10] | CC50 [11] | CC50 [12] | CC50 [13] | CC50 [14] | IC50 [15] | CC50 [16] | CC50 [17] | CC50 [18] | other results |
| --- | --- | --- | --- | --- | --- | --- | --- | --- | --- | --- | --- | --- | --- | --- | --- | --- | --- | --- | --- | --- | --- |
| CNC(=O)c1cc(Oc2ccc(NC(=S)Nc3ccc(Cl)c(C(F)(F)F)c3)cc2)ccn1 [ZTP, N-[4-chloro-3-(trifluoromethyl)phenyl]-[4-(N-methyl-formamide)(4-pyridyloxy)phenyl]-thiourea] | 3670 nM | 1980 nM | 1890 nM | 51 µM | 6.4 h | 4.1 h | 1120 nM | 1370 nM | 1190 nM | 1090 nM | 1610 nM | 1220 nM | 1480 nM | 1890 nM | 1710 nM | 1910 nM | 21 nM | 1750 nM | 1310 nM | 1590 nM | CC50 [19]: 1190 nM |
| CNC(=O)c1cc(Sc2ccc(NC(=S)Nc3ccc(Cl)c(C(F)(F)F)c3)cc2)ccn1 [ZTQ, N-[4-chloro-3-(trifluoromethyl)phenyl]-[4-(N-methyl-formamide)(4-pyridylthio)phenyl]-thiourea] | 2500 nM | 1430 nM | 1310 nM | 52 µM | 6.6 h | 4.2 h | 910 nM | 1120 nM | 1030 nM | 890 nM | 1210 nM | 1010 nM | 1120 nM | 1370 nM | 1230 nM | 1360 nM | 9 nM | 1260 nM | 1100 nM | 1230 nM | CC50 [19]: 980 nM |

Reference: patent publication US20130225641A1, “ANTICANCER COMPOUNDS AND PREPARATION METHODS THEREOF” (priority 2010, published 2013)
